Measurements as given in publication PMC12916490 (Molecular Psychiatry, 2025).

Assays:
hTAAR1 = biological target: T1, hTAAR1 (Homo sapiens, UniProt Q96RJ0); experiment: Functional activity at human TAAR1 (cAMP); assay type: cell-based
T1 construct: expressed in transfected cells
T1 sequence (Q96RJ0 1-339): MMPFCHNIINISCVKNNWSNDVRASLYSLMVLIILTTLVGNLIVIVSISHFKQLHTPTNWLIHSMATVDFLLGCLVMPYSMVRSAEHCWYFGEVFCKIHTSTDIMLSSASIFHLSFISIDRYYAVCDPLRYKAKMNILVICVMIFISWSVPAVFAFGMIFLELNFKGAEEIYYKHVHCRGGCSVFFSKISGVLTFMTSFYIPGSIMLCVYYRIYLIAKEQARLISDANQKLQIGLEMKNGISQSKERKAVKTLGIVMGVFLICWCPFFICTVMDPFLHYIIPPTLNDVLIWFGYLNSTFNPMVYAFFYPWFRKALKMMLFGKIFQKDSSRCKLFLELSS
Description: Activity at the human trace amine-associated receptor 1 (hTAAR1) was determined as previously described. More information can be found in the Supplementary information.
Then, the obtained RA values were used to calculate the bias factor (β) for each pathway combination. […]
pathway 1 over pathway 2. Brown-Forsythe and Welch ANOVA analyses were applied to estimate the statistical probability that β is different from zero.
3.3 Functional activity at the human TAAR1 […]
receptor 1 (hTAAR1) were generated by transfection with Lipofectamine 2000 (Invitrogen, Zug, Switzerland). The cells were harvested and pelleted by centrifugation at 900 rpm for 3 min at room temperature. The supernatant was then removed, and the cell pellet was resuspended in fresh culture medium. The cells were plated into 96 -well plates (100 μL, containing 80,000 cells per well) and incubated […]
The culture medium was removed, and the cells were washed once with 50 μL phosphate buffered saline without Ca2+ and Mg2+. Thereafter, 90 μL of Krebs -Ringer bicarbonate buffer (Sigma- […]
to 10 μM cAMP) was included on each plate. In addition, a reference plate containing RO5256390, β-phenylethylamine, and p-tyramine was included in each experiment. Test compound solution, β-phenylethylamine (as maximal response), or basal control were added at a volume of 30 μL, and the cells […]
Afterwards, the cells were lysed with 50 μL of detection mix solution […]
under heavy shaking. Fluorescence was then measured.
3.4 Plasma and brain tissue analysis
3.4.1 Analytical standards […]
to spike blank plasma or tissue homogenate at calibration standards of 1, 2.5, 5, 10, 25, 50, 100, 250, and […]
Extraction was performed by protein precipitation with 150 µL of acetonitrile added to 50 µL plasma in a 2-mL centrifuge tube. The samples were then vortexed for 10 s and shaken for 3 min at […]

C57BL/6 J mice [1] = experiment: Head-twitch response (HTR) dose-response in mice, 30-min session; assay type: in vivo, mouse; settings: for HTR (count/30 min): mean ± SEM
Description: (§1) Behavioral studies were conducted as previously described with minor modifications. Male C57BL/6 J mice (The Jackson Laboratory #000664, 24 mice/drug) were purchased at 8 weeks old, group housed for acclimation (3–5 per cage for 1–2 weeks) under a 12:12 light:dark cycle (07:00 local time = lights on), with ad libitum access to food and water at the NIDA IRP facilities in Baltimore, MD, USA. All experiments were approved by the NIDA IRP Animal Care and Use Committee. After acclimation to the vivarium facilities, each mouse was briefly anesthetized with isoflurane and a temperature transponder (14 × 2 mm, model IPTT-300, Bio Medic Data Systems, Inc., Seaford, DE, USA) was implanted subcutaneously (s.c.) on the back, posterior to the shoulder blades. After the implant, mice were single housed and allowed one week recovery prior to the start of experiments. […] Drugs were randomly assigned and administered s.c. as the weight of the form used at an injection volume of 0.01 mL/g body weight.
(§2) During experimental testing, mice were tested once every 1–2 weeks to avoid potential tolerance to behavioral effects of the test drugs and were tested 2–3 times in total per drug. Each test session began with a brief 5 min acclimation period to the testing arenas, followed by recording baseline body temperature using a handheld wand that was sensitive to the signals emitted from the s.c. transponder. After this, mice were injected s.c. with appropriate doses of test drug and returned to the chambers for a 30-min test session. During the dose-response sessions, locomotor activity was continuously recorded using open field chambers with photobeam arrays (Coulbourn Instruments, Holliston, MA, USA) that were modified with cylindrical inserts and custom floor panels that also allowed video recordings of each mouse to later quantify HTR activity (GoPro Hero 7 camera; 960p resolution at 120 frames per second). Videos for each mouse were analyzed post session using commercially available software used to quantify HTR as previously described.
(§3) Data analysis was performed with Prism software (version 10.1.2, GraphPad Software, Boston, MA, USA). The IC50 values from the radioligand binding assays were determined by nonlinear regression, using three independent concentration-response curves fitted to a one-site model. The Cheng-Prusoff equation was used to calculate Kᵢ values for the competing ligands. EC50 values were determined by applying nonlinear regression to concentration-response curves. Bias factors (β) were calculated based on the relative intrinsic activity approach. More detailed information can be found in the Supplementary information. Mean values for total number of HTR, change in body temperature from pre to post session (Δ°C), and total distance traveled (cm) for each drug dose were compared (p < 0.05) via Welch’s ANOVA with Dunnett’s T3 post test, comparing all doses to respective vehicle controls (0 mg/kg). Welch’s ANOVA with Dunnett’s T3 post test was also used to compare drug concentrations, but the data were compared to DOM in this case. Dose–response relationships for HTR and locomotor activities were plotted using bell-shaped curve fits, while temperature change data were plotted using four-parameter non-linear regression curve fits. The ascending phase of the HTR curve for each drug was used to determine ED50 potency values from four parameter non-linear regression fits. For combined DOM and DOAM administration, the plasma, brain tissue, and brain dialysate drug concentrations were compared using paired t-tests (p < 0.05). Ratios were compared using Holm-Sidak’s post hoc test following a repeated-measures one-way ANOVA (F (1.709, 6.835) = 70.80; p < 0.0001).
(§4) Locomotor activity and body temperature were also assessed to monitor other pharmacological effects of the drugs that may impact the HTR. […]

C57BL/6 J mice [2] = experiment: Locomotor activity in mice (dose-response sessions); assay type: in vivo, mouse; settings: 30-min session, mean ± SEM
Description: as §1, §2, §3, §4

h5-HT2A = h5-HT2A (Homo sapiens, UniProt P28223); experiment: biochemical; assay type: binding; set-up: expressed in transfected cells; host or cells: HEK 293 cells (membrane preparation)
Sequence of h5-HT2A (P28223 whole entry, looked up): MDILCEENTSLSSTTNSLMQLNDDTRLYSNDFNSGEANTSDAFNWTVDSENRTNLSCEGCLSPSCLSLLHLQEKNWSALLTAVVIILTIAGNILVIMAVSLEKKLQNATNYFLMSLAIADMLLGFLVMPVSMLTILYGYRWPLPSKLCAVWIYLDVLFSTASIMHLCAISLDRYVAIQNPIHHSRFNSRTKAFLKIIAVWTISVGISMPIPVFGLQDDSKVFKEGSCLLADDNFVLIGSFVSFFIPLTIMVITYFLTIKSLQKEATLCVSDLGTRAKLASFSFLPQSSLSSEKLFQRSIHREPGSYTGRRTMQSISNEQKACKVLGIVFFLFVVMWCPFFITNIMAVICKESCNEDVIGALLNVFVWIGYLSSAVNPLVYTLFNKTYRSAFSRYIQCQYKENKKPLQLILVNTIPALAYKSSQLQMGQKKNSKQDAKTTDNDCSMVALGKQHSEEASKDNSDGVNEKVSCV

In the case of `COc1ccc(OC)c(CC(C)N)c1.Cl` (stereo not shown) [2,5-DMA, 2,5-Dimethoxyamphetamine hydrochloride], the EC50 (hTAAR1) is reported as > 30000 nM, the “HTR (count/30 min)” value (C57BL/6 J mice [1]; 0.03 mg/kg s.c.) is reported as 5.8 ± 1.9 count and the “HTR (count/30 min)” value (C57BL/6 J mice [1]; 0.1 mg/kg s.c.) is reported as 6.7 ± 0.7 count. For the same compound, the “HTR (count/30 min)” value (C57BL/6 J mice [1]; 0.3 mg/kg s.c.) was 7.3 ± 1.2 count, the “HTR (count/30 min)” value (C57BL/6 J mice [1]; 1 mg/kg s.c.) was 11.7 ± 2.1 count and the “HTR (count/30 min)” value (C57BL/6 J mice [1]; 3 mg/kg s.c.) was 15.3 ± 0.6 count. For the same compound, the “HTR (count/30 min)” value (C57BL/6 J mice [1]; 10 mg/kg s.c.) was 23.2 ± 1.9 count, the “HTR (count/30 min)” value (C57BL/6 J mice [1]; 30 mg/kg s.c.) was 16.2 ± 5.0 count and the ED50 (C57BL/6 J mice [1]; Mus musculus, sc, 0.5 h, read-out: HTR in mice ED50 (95% CI), s.c., 30 min session, ascending phase of dose-response curve) was 1.39 mg/kg. For the same compound, the “HTR in mice Emax” value (C57BL/6 J mice [1]; s.c., 30 min session) was 23 total HTR count, the “HTR in mice Maximum rate” value (C57BL/6 J mice [1]; s.c., 30 min session) was 5 HTR count/5 min and the “Locomotor activity (distance traveled)” value (C57BL/6 J mice [2]; 0.03 mg/kg s.c.) was 2,854 ± 266 cm. The “Locomotor activity (distance traveled)” value (C57BL/6 J mice [2]; 0.1 mg/kg s.c.) was 2,763 ± 284 cm, the “Locomotor activity (distance traveled)” value (C57BL/6 J mice [2]; 0.3 mg/kg s.c.) was 2,584 ± 157 cm and the “Locomotor activity (distance traveled)” value (C57BL/6 J mice [2]; 1 mg/kg s.c.) was 2,630 ± 184 cm. The “Locomotor activity (distance traveled)” value (C57BL/6 J mice [2]; 3 mg/kg s.c.) was 2,780 ± 415 cm, the “Locomotor activity (distance traveled)” value (C57BL/6 J mice [2]; 10 mg/kg s.c.) was 1,801 ± 171 cm and the “Locomotor activity (distance traveled)” value (C57BL/6 J mice [2]; 30 mg/kg s.c.) was 1,169 ± 214 cm.

Work on `CCc1cc(OC)c(CC(C)N)cc1OC` (stereo not shown) [DOET, 4-ethyl-2,5-dimethoxyamphetamine] yielded a Ki (h5-HT2A) of 12 nM.
